Results: patent US20220127565A1, “A Self-Assembling Short Amphiphilic Peptide And Related Methods And Uses” (Agency for Science, Technology and Research, priority 2019, published 2022)
One block for each molecule: values may come before it. Residues, ends and D or L forms follow the SMILES beside them.

Legend:
[1] = TGA degradation temperature; format: physicochemical
[2] = Gelation / hydrogel formation, minimum gelation concentration in water, buffered saline or PBS; format: physicochemical; details: for Self-assembly into hydrogels / scaffolds: aqueous conditions; for Self-assembly into hydrogels / scaffolds / Minimum gelation concentration in buffered saline: buffered saline
Method: Preparation of Hydrogels.
Lyophilized peptide powder was dissolved in milliQ water and mixed for 30 seconds by vortexing to obtain a homogenous solution. 10% volume of 10-times phosphate-buffered saline was subsequently added and mixed by pipetting. Gelation occurred between seconds (PBS) to overnight (water), depending on the peptide concentration and solution used.

[3] = Thixotropy of hydrogel, recovery after vortexing; format: physicochemical; details: hydrogel disturbed by vortexing
[4] = Circular dichroism spectroscopy, secondary structure transitions with increasing peptide concentration; format: physicochemical; details: for Secondary structure transitions: Table 1; for Secondary structure / conformational transitions (circular dichroism): increasing peptide concentration
Method: Circular Dichroism Spectroscopy.
CD spectra were collected with a Jasco CD spectrophotometer fitted with a temperature controller, using quartz suprasil cuvettes with an optical path length of 1 mm. All samples were prepared in milIQ water and equilibrated for an hour at room temperature before measurement. Data acquisition was performed for wavelength range from 190-260 nm with a spectral bandwidth of 1.0 nm. All spectra were baseline-corrected using milliQ water as baseline. The mean residue ellipticity (MRE) was calculated as follows:
[θ]=θ/(10·N·c·l) where […] represents the ellipticity in millidegrees, N the number of amino acid residues, c the molar concentration in mol·L-1, and I the cell path length in cm.

[5] = Gelation in dimethylsulfoxide; format: physicochemical
[6] = system: 8 cm×8 cm excisional full thickness wound; test: Porcine wound healing study of peptide hydrogel wound dressings; format: in vivo; details: hydrogel applied weekly for 6 weeks
Method: A porcine wound healing study was performed to evaluate the peptide hydrogels for wound healing applications. An 8 cm×8 cm excisional full thickness wound was created on the back of the animal, and three of the peptide hydrogels were applied using a polydimethylsiloxane mould. Wound dressing changes were carried out weekly for 6 weeks, with application of fresh hydrogel.

[7] = Rheology, storage modulus of hydrogels; format: physicochemical; details: hydrogels prepared in buffered saline
Method: Hydrogel samples were prepared in polydimethysiloxane moulds to obtain approximately 1 mm thick, 8 mm diameter discs. Dynamic strain and oscillatory frequency sweep experiments were carried out using the ARES-G2 Rheometer (TA Instruments, Piscataway, N.J.) with 8 mm titanium parallel plate geometry. The readings of 3 samples were averaged for each condition.

[8] = system: embryonic stem cells H1 and H9; test: 3D culture of pluripotent stem cells encapsulated in hydrogel droplets; format: cell-based, human; details: for Colony formation of single cell suspensions in hydrogel: H1 and H9, cell encapsulation densities exceeding 5×10^6 cells/mL
Method: (§1) 3D Encapsulation of Stem Cells.
(§2) H1 embryonic stem cells cultured on Matrigel were dissociated into single cells using TrypLE Express, and re-suspended in 50% mTESR in PBS at an approximate concentration of 4×10^6, 10^7 or 1.6×10^7 cells/mL. 0.5 μL of cells was injected into a droplet of 2 μL 10 mg/mL peptide solution. Warmed culture media (mTESR) containing ROCK inhibitor Y-27632 was added for the first day and replaced by either mTESR or endoderm differentiation media subsequently. The endoderm differentiation protocol was adapted from Spence et al (2011). Briefly, the encapsulated cells were exposed to RPMI media containing 100 ng/mL Activin A, 2 mM glutamax, 1% penicillin-streptomycin and increasing concentrations of defined fetal bovine serum. After 3 days, the hydrogel droplets were washed with RPMI and incubated in hindgut differentiation media (RPMI media containing 1% defined fetal bovine serum, 1% penicillin-streptomycin, 2 mM glutamax, 500 ng/mL FGF4 and 500 ng/mL Wnt3A.
Immunohistochemistry and Confocal Microscopy Imaging.
Cell samples were fixed in 4% paraformaldehyde for 15 minutes and permeabilized in 0.01% Triton-X for 10 minutes. The encapsulated human embryonic stem cells were incubated at 4° C. overnight in 5% Bovine-Serum Albumin containing primary antibodies. The corresponding secondary antibodies and DAPI were applied for 90 minutes before the samples were imaged. Confocal microscopy was performed using a Zeiss LSM 510 microscope at the Institute of Medical Biology Microscopy Unit (A*STAR, Singapore).

[9] = system: H1 human embryonic stem cells; test: Chromosomal aberrations after 5 passages of 3D culture; format: cell-based
Method: as §1, §2

[10] = system: H9 embryonic stem cells; test: 3D endoderm / hindgut differentiation of encapsulated stem cells (H9); format: cell-based, human; details: H9 in 8 mg/mL hydrogel droplets

Molecule: CC[C@H](C)[C@H](NC(=O)[C@@H](NC(=O)[C@H](CC(=O)O)NC(C)=O)C(C)C)C(N)=O [Ac-DVI-NH2] (Ac-Asp-Val-Ile-NH2)
- TGA Degradation Temperature [1]: 321.5 °C
- [Peptide] min, PBS [2]: 9.9 mg/mL
- Self-assembly into hydrogels / scaffolds [2]: self-assemble into nanofibrous scaffolds
- [Peptide] min, water [2]: 11.6 mg/mL
- Standing time to return to gel state after vortexing [3]: 10 min

Molecule: CC[C@H](C)[C@H](NC(C)=O)C(=O)N[C@H](C(=O)N[C@@H](CC(=O)O)C(=O)O)C(C)C [Ac-IVD, reference compound] (Ac-Ile-Val-Asp-OH; C-terminus assumed)
- TGA Degradation Temperature [1]: 323.6 °C
- [Peptide] min, PBS [2]: 19.2 mg/mL
- [Peptide] min, water [2]: 40.8 mg/mL

Molecule: CC[C@H](C)[C@H](NC(C)=O)C(=O)N[C@H](C(=O)N[C@@H](CC(=O)O)C(N)=O)C(C)C [Ac-IVD-NH2, reference compound] (Ac-Ile-Val-Asp-NH2)
- TGA Degradation Temperature [1]: 328.5 °C
- [Peptide] min, PBS [2]: 33.9 mg/mL
- [Peptide] min, water [2]: 44.9 mg/mL

Molecule: CC[C@H](C)[C@H](NC(C)=O)C(=O)N[C@H](C(=O)N[C@@H](CCCCN)C(N)=O)C(C)C [Ac-IVK-NH2, reference compound] (Ac-Ile-Val-Lys-NH2)
- Minimum gelation concentration in buffered saline [2]: >30 mg/mL
- Secondary structure transitions [4]: Yes

Molecule: Ac-GAVLI-NH2 [Ac-GAVLI-NH2]
- Gel formation in dimethylsulfoxide [5]: thixotrophic gels

Molecule: Ac-HGAVIA-NH2 [Ac-HGAVIA-NH2]
- Gel formation in dimethylsulfoxide [5]: thixotrophic gels

Molecule: Ac-HGAVLI-NH2 [Ac-HGAVLI-NH2]
- Gel formation in dimethylsulfoxide [5]: thixotrophic gels
- Reduction of wound size [6]: effective reduction of wound size

Molecule: Ac-ILVAGK-NH2 [Ac-ILVAGK-NH2, reference compound]
- Minimum gelation concentration in buffered saline [2]: 3 mg/mL
- Storage moduli of hydrogels [7]: ~10 kPa
- Colony formation of single cell suspensions in hydrogel [8]: several colonies developed
- Secondary structure transitions [4]: Yes

Further lines, with some results ahead:

- Minimum gelation concentration in buffered saline [2]: >30 mg/mL
- Secondary structure transitions [4]: Yes
Molecule: CC[C@H](C)[C@H](NC(=O)[C@@H](NC(=O)[C@H](CCCCN)NC(C)=O)C(C)C)C(N)=O [Ac-KVI-NH2] (Ac-Lys-Val-Ile-NH2)
- Secondary structure / conformational transitions (circular dichroism) [4]: same secondary structure transitions as their parent sequences

- Minimum gelation concentration in buffered saline [2]: 3 mg/mL
- Secondary structure transitions [4]: Yes
Molecule: Ac-KGAVLI-NH2 [Ac-KGAVLI-NH2]
- Mutagenicity, chromosomal aberrations [9]: non-mutagenic
- Reduction of wound size [6]: effective reduction of wound size
- Expression of hindgut biomarker Cdx2 ([10]; day 9): expression of hindgut biomarker Cdx2 was observed
- Cells expressing Sox17, flow cytometry ([10]; definitive endoderm differentiation): 90%
- Colony formation at lower cell seeding densities ([8]; 2×10^6 cells/mL): formation of several colonies within a single droplet
- Colony formation of single cell suspensions in hydrogel [8]: more likely to aggregate into a single colony
- Pluripotency, staining of Oct4 and Tral-60 biomarkers ([8]; cultured in defined mTESR media): retained their pluripotency
- Retention of the expanding colonies ([8]; day 7, bioprinted hydrogel droplets encapsulating cells): higher retention of the expanding colonies
- Cell migration and consistency in generating single colonies ([8]; synthetic 3D stem cell culture substrate, compared to Gen1 analog): enhanced cell migration and better consistency in generating single colonies
- Secondary structure / conformational transitions (circular dichroism) [4]: same secondary structure transitions as their parent sequences

- Gel formation in dimethylsulfoxide [5]: thixotrophic gels
Molecule: Ac-SGAVIA-NH2 [Ac-SGAVIA-NH2]

- Self-assembly into hydrogels / scaffolds [2]: forms hydrogels in buffered saline
- Minimum gelation concentration in buffered saline [2]: 20 mg/mL
- Secondary structure transitions [4]: Yes
- Secondary structure / conformational transitions (circular dichroism) [4]: same conformational transitions
Molecule: H-KGAVLI-NH2 [KGAVLI-NH2]

- Gel formation in dimethylsulfoxide [5]: thixotrophic gels
Molecule: H-SGAVLI-NH2 [SGAVLI-NH2]
- Reduction of wound size [6]: effective reduction of wound size
